The source of these data is US4064128A, “N,[3-(4'-fluorobenzoyl)propyl]-N2 -(2'-chloro-5'-methylphenoxy)ethyl]p i” (Kali-Chemie Aktiengesellschaft, priority 1971, dated 1977).

Series [1] deals with aggression induced by clonidine. Put plainly: Inhibition of aggression induced by clonidine (Morpurgo). As to conditions: Mus musculus, ip, 30 min before 46.4 mg/kg i.p. clonidine, mice; read-out: Aggression test (Morpurgo), ED50. It counts as in vivo. The method, then: Test 3. Inhibition of aggression induced by clonidine
This test was described by C. Morpurgo in European Journal of Pharmacology,vol. […] In this test 12 mice are separated into pairs and each mouse is injected intraperitoneally with a dose of the test compound. […] Clonidine at this dosage level produces an aggressive behaviour in the mice which expresses itself in violent bouts of fighting and biting. The mice are observed and their behaviour scored in accordance with a point system. The mice are observed during a period of 30 minutes and each pair of mice scores 2 points if, during any 10 minute interval, two or more encounters or bouts had occurred. Six pairs of mice accordingly cannot score more than a total of 36 points during the 30 minute period, which is rated 100%.

Series [2] has as its system hexobarbital sleep duration. The series is described as follows: Sleep prolongation test (hexobarbital). It counts as in vivo, female mice. As to conditions: for ED (4-fold prolongation): Mus musculus, po, dose p.o. 30 min before 65 mg/kg i.v. hexobarbital, mice, read-out: Fourfold prolongation of hexobarbital sleep duration; for sedative effect (in words), sleep prolongation and aggression test: prolongation of hexobarbital sleep duration and aggression test. The method, then: Test 2. Sleep prolongation test
In this test a dose of the test compound is first administered perorally to female mice. After an interval of 30 minutes a dose of 65 milligrams of hexobarbital per kilogram of body weight of the animal is administered intravenously to the mice. The length of the period after administration of the hexabarbital during which the mouse remains sleeping on its side before turning over onto its abdomen, is then noted.

Series [3] can be described thus: Acute oral toxicity (LD50 p.o.). It counts as in vivo. As to conditions: for LD50 at 168 h: mouse, in vivo, po, mice, single dose, 7 days survival period; for toxicity (in words): compared with the other tested compounds. The method, then: Test 1. Acute oral toxicity
The acute oral toxicity (LD50 p.o.) was determined by peroral administration of a single dose of the compound to fasting white male mice.
The lethal dose in terms of milligrams of the compound per kilogram of body weight of the tested animals was computed in accordance with the method described by J. P. Litchfeld and F. Wilcoxon in Journal of Pharmacology and Experimental Therapeutics, vol. 96, page 99 (1949).
The doses that are referred to herein were all computed in accordance with the said method. The results in this test were based upon a survival period of 7 days.

Series [4] deals with phenyl quinone writhing. Put plainly: Analgesic effect, Writhing test (phenyl quinone). It counts as in vivo, male albino mice (NMRI strain). As to conditions: for ED (effect equal to amidopyrine 100 mg/kg): Mus musculus, oral dose equivalent to 100 mg/kg oral amidopyrine, phenyl quinone 1.5 mg/kg, read-out: Writhing-test (dose producing same effect as amidopyrine). The method, then: The analygesic effect of the substance was determined by the Writhing test. The substances to be tested were administered to male albino mice (NMRI strain) in accordance with the method described by E. Sigmund, R. Cadmus and G. Lu in Proc. Soc. exp. […] After 30 minutes, 1.5 mg. of phenyl quinone per kg. of body weight were administered to the test animals through the abdominal cavity. Amidopyrine was orally administered as comparison substance in a dose of 100 mg/kg. The figures set out in Table 2 indicate the oral doses of the compounds according to the invention in mg/kg which produce the same effect as the dose of the comparison substance.
(Writhing tests count abdominal constrictions after an irritant is injected.)

Series [5] concerns ileum portion. The series is described as follows: Antihistamine action, Magnus procedure. The arrangement: species or system Pirbright guinea pigs. As to conditions: Cavia porcellus, guinea pig ileum, read-out: Antihistamine action ED50. From the text: Test 5. Antihistamine action
The ED50 has been given in mol/1.

The mark [6] stands for this setting: listed as compound of the invention.

Entries after “also recorded” stand apart in the source; their conditions may differ.

Usually ED50 stands for the dose that gives a 50% effect, or the effect in half of the subjects. Usually LD50 stands for the dose expected to kill half of the subjects tested.

With `O=C(CCCN1CCN(CCOc2c(Cl)cccc2Cl)CC1)c1ccc(F)cc1` [2,6-dichlorophenyl, reference compound], in series [1], the ED50 was determined as 7.4 mg/kg. Besides, in series [2], the ED (4-fold prolongation) was determined as 117 mg/kg. The LD50 at 168 h in series [3] amounted to 1020 mg/kg.
As for `Cc1cccc(OCCN2CCN(CCCC(=O)c3ccc(F)cc3)CC2)c1C` [2,3-dimethylphenyl], in series [1], the 50% effective dose (ED50) was 4.6 mg/kg. In addition, the ED (effect equal to amidopyrine 100 mg/kg) in series [4] stood at 23 mg/kg. Besides, the ED (4-fold prolongation) in series [2] is 120 mg/kg. The LD50 at 168 h in series [3] was determined as 1040 mg/kg.
As to `Cc1ccc(Cl)c(OCCN2CCN(CCCC(=O)c3ccc(F)cc3)CC2)c1` [2-chloro-5-methylphenyl], in series [1], the ED50 was determined as 0.35 mg/kg. In series [4], the ED (effect equal to amidopyrine 100 mg/kg) worked out at 6 mg/kg. In series [4] (Writhing test), the “analgesic effect (in words)” value is “good analgesic effects”. Besides, in series [2], the ED (4-fold prolongation) worked out at 7 mg/kg; the “sedative effect (in words), sleep prolongation and aggression test” value (“sedative effect (in words)” below) is “substantially better results in regard to sedative effects”. Besides, the “sedative effect (in words)” value in series [2] (setting [6]) is given as “the same or better than that of the 4-nitrophenyl compound”. Further, the IC50 in series [5] came to 7 nM. Moreover, in series [3] (setting [6]), the “toxicity (in words)” value is on record as “very substantially lower than that of 4-nitrophenyl; also recorded: low toxicity”. This compound also yielded an LD50 at 168 h in series [3] of 464 mg/kg.
Turning to `Cc1cc(C)cc(OCCN2CCN(CCCC(=O)c3ccc(F)cc3)CC2)c1` [3,5-dimethylphenyl], in series [4], the ED (effect equal to amidopyrine 100 mg/kg) was determined as 6.9 mg/kg. Besides, in series [2], the ED (4-fold prolongation) amounted to 68 mg/kg; the “sedative effect (in words)” value is “less satisfactory sedative effect”. Moreover, in series [3], the “toxicity (in words)” value is listed as “even a higher toxicity” and the median lethal dose (LD50) at 168 h was determined as 297 mg/kg.
For `O=C(CCCN1CCN(CCOc2ccc([N+](=O)[O-])cc2)CC1)c1ccc(F)cc1` [4-nitrophenyl], in series [1], the 50% effective dose (ED50) is 0.7 mg/kg. Also, the ED (effect equal to amidopyrine 100 mg/kg) in series [4] was 1.8 mg/kg. Moreover, the ED (4-fold prolongation) in series [2] stood at 8 mg/kg. The IC50 in series [5] worked out at 4 nM. The compound also came in with a median lethal dose (LD50) at 168 h in series [3] of 215 mg/kg.
On the same counts, the results for `O=C(CCCN1CCN(CCOc2ccc(Cl)cc2)CC1)c1ccc(F)cc1` [4-chlorophenyl, reference compound] are 6 mg/kg, 5.5 mg/kg, 21.5 mg/kg, 9 nM and 336 mg/kg.
Regarding `Cc1ccc(C)c(OCCN2CCN(CCCC(=O)c3ccc(F)cc3)CC2)c1` [2,5-dimethylphenyl], the ED (effect equal to amidopyrine 100 mg/kg) in series [4] was found to be 17 mg/kg. Moreover, the ED (4-fold prolongation) in series [2] worked out at 100 mg/kg. In addition, the LD50 at 168 h in series [3] was 1240 mg/kg.
As to `O=C(CCCN1CCN(Cc2ccc(F)cc2)CC1)c1ccc(F)cc1` [fluorobenzyl, no O-bridge, reference compound], in series [1], the 50% effective dose (ED50) came to 7.6 mg/kg. Besides, in series [4], the ED (effect equal to amidopyrine 100 mg/kg) stood at 49.5 mg/kg. For the same compound, in series [2], the ED (4-fold prolongation) is 18.5 mg/kg. Besides, the IC50 in series [5] turned out to be 120 nM. The same compound returned a median lethal dose (LD50) at 168 h in series [3] of 431 mg/kg.
Taken in the same sequence, the figures for `Cc1cc(Cl)ccc1OCCN1CCN(CCCC(=O)c2ccc(F)cc2)CC1` [4-chloro-2-methylphenyl] were 2.5 mg/kg, 68.1 mg/kg, 100 mg/kg, 17 nM and 1000 mg/kg.
As to `COc1ccc(CN2CCN(CCCC(=O)c3ccc(F)cc3)CC2)cc1` [methoxyphenyl, no O-bridge, reference compound], the ED50 in series [1] worked out at 4.7 mg/kg. The ED (effect equal to amidopyrine 100 mg/kg) in series [4] worked out at 62 mg/kg. In addition, the ED (4-fold prolongation) in series [2] was found to be 33.9 mg/kg. In addition, the IC50 in series [5] was determined as 150 nM. In series [3], this compound displayed a 50% lethal dose (LD50) at 168 h of 431 mg/kg.
